Results on 88 compounds are retold here after a melting point compilation (Tetko et al.; mined from patent text by program, amines drawn as free bases though some values may be those of a salt).

Usually melting point stands for the temperature of the solid-liquid transition.

Where only a bound is given, the exact number is not on record here.

With `C=CC(C)(C)c1cc(CCC(=O)c2ccc(O)cc2)c(OC)cc1O`, the melting point worked out at 154 °C. For the compound `Cc1sc(COc2ccc(/C=C/C=O)cc2)nc1-c1ccccc1`, the melting point was in the range of 116 to 117 °C.

In turn, `Cc1cc(-c2cncc(OC3SCC(O)C(O)C3O)c2)ccc1C#N` (stereo not drawn) showed a melting point of 198 to 200 °C.

`CC(C)OC(=O)N1CCC(c2nc3cc(-c4ccc(S(C)(=O)=O)cc4F)ccc3o2)CC1`: the melting point was 96.5 to 101 °C.

`COC(=O)CCc1ccc(NC(=O)C(Cn2ccnc2)NS(=O)(=O)c2ccc(Cl)cc2)cc1` (racemic) yielded a melting point of 79 to 82 °C. Take `C[C@H]1CCCC(C)(C)[C@@H]1[C@H](O)c1ccc(F)c(C#N)c1`: the melting point fell in the range of 118 to 119 °C. `O=C(O)CCCCCCc1cc(-c2ccccc2)c2ccccc2n1` returned a melting point of 39 °C. As to `C=CCN(CC=C)c1nc(NC(=O)c2ccc(Cl)cc2Cl)n2oc(=O)nc2n1`, the melting point fell in the range of 163 to 164 °C.

With `COCCN(C)Cc1c(-c2ccc(NC(=O)NOC)cc2)sc2c1c(=O)n(-c1ccc3c(c1)OCCO3)c(=O)n2Cc1c(F)cccc1F`, the melting point fell in the range of 155 to 156 °C. The compound `COC(=O)CSc1nc(Oc2ccc(N3CCNCC3)cc2)ncc1[N+](=O)[O-]` gave a melting point of 193 to 195 °C. Then `O=CNC(Cl)C(Cl)(Cl)CCl` (stereo not drawn), with 55 to 57 °C; and `CN1CCN(C(=O)Cc2c(-c3ccc(Cl)cc3)nc3ccccn23)CC1`, with 175 °C.

For the compound `CC(=O)C1CCC2C3CCC4CC(O)(c5ccccc5)CCC4(C)C3CCC12C` (stereo not drawn), the melting point lay within 182 to 184 °C. Then `N#Cc1cc(C(=O)O)cc(O)c1O`, with 269 to 271 °C; and `O=C(CI)Nc1ccc(C(=O)O)cc1`, with 194 to 196 °C; and `Cc1nc(NC(=O)c2cccc(C(F)(F)F)c2)sc1C(=O)NCc1ccccc1`, with 195 to 196 °C. `CC(C)c1nsc(N=C(C#N)N(C)C)c1C#N` displayed a melting point of 78 to 79 °C. For `NC(=S)c1ccc(CC(NC(=O)OCc2ccccc2)C(=O)NCC(=O)NCCC(=O)OCc2ccccc2)cc1` (racemic), the melting point lay in the range of 150 to 151 °C.

Compound `CC(=O)NCc1ccc(CN2CCN(c3ccc(F)cc3)CC2)cc1N` yielded a melting point of 163 to 164 °C. Then `O=[N+]([O-])c1ccc(Cl)c2c(Cl)ccnc12`, with 116 to 118 °C; and `CC1CCC(C(C)C)C(OC(=O)C2(CC(N)=O)C(=O)N(Cc3ccc(Br)cc3F)C(=O)c3cccn32)C1` (stereo not drawn), with 122 to 123 °C.

In the case of `CCOC(=O)c1c2ccc(Cl)cc2c(-c2ccccc2)n1CCN(CC)CC`, the melting point lay within 75 to 77 °C. Turning to `Cc1ccc(Cl)cc1N1C(=O)CN(C)C1=S`, the melting point is 132 to 134 °C. `CCCCc1ccc(-c2nc(F)c(-c3ccc(OC)cc3)o2)cc1` came in with a melting point of 72 °C. Consider `COc1cc2c(cc1C(=O)c1cc(C(C)(C)C)c(O)c(C(C)(C)C)c1)CCC2`, for which the melting point lay in the range of 154 to 156 °C.

`Oc1ccc(O)c(-c2noc3cc(O)ccc23)c1` came in with a melting point of 215 to 217 °C. In turn, `CCc1cccc(CC)c1NC(=O)NCC1(c2ccccc2)CCCC1` came in with a melting point of 165 to 167 °C.

The compound `O=C(O)CC1(c2ccc(Cl)c(Cl)c2)CNC(=O)C1` (stereo not drawn) registered a melting point of 191 to 195 °C. For the compound `CNC(=O)N1CCc2cc(S(=O)(=O)N(C)OC)ccc21`, the melting point was 152 °C. `Oc1cc2c(cc1-c1nc3cc(Cl)ccc3o1)oc1ccccc12`: the melting point fell in the range of 244 to 246 °C.

Turning to `CCC(=O)NS(=O)(=O)c1cccc(-c2cc(-c3nc(-c4ccc(C(F)(F)F)nc4)cc(C(F)(F)F)n3)ccn2)c1`, the melting point was found to be 242 °C.

`Cn1nc(C(F)(F)F)c(C(=O)O)c1N` had a melting point of 216 to 218 °C. Regarding `O=C1C(=Cc2c[nH]c3ccccc23)N(Cc2ccccc2)C(=O)N1Cc1cc(C(F)(F)F)cc(C(F)(F)F)c1`, the melting point was in the range of 154 to 156 °C. `C#CCNC(=O)c1ncn2c1CN(C)C(=O)c1c-2ccc(F)c1Cl` gave a melting point of 235 to 237 °C. For the compound `N#CC(Cl)Cc1cccc([N+](=O)[O-])c1` (stereo not drawn), the melting point turned out to be 90 °C. In turn, `CCN(CC)CCOc1cccc2c1c1cccc(F)c1n2Cc1ccc(F)cc1` showed a melting point of 59 to 60 °C. `CCOC(=O)c1cnn(-c2ccccc2Oc2ccc(C)cc2O)c1` gave a melting point of 118 to 119 °C. `O=C(O)Cc1nn(Cc2ccc(Br)cc2F)c2ccccc12`: the melting point was 167 to 168 °C. For the compound `Cc1[nH]c2ccc(C(=O)c3ccccc3)cc2c1C=O`, the melting point was in the range of 227 to 230 °C. `CCCCOc1ccc(Cc2cc3c(cn2)COC3)cc1` displayed a melting point of 213 to 215 °C. `CC(C)C[C@H](NC(=O)OCc1ccccc1)C(=O)N[C@@H](Cc1ccccc1)C(=O)CSCc1ccccc1` came in with a melting point of 86 to 87 °C. In turn, `O=C(Nc1ccc(Oc2ccnc(N3CCOCC3)n2)c2ccccc12)c1cc(F)cc(N2CCOCC2)c1` displayed a melting point of 104 to 106 °C. With `CCC(O)(CC(=O)OC)c1cc2n(c(=O)c1COC)Cc1cc3ccccc3nc1-2` (stereo not drawn) the figure was 163 to 166 °C; with `Cc1cc2c(cc1C(=O)Cc1ccccc1)CCC2`, 126 to 127 °C. Then `NCC1CC(CCC(=O)O)=NO1` (stereo not drawn), with 201 °C. Compound `CS(=O)c1ccc(CCCCCCCCCCC(Cl)(Cl)C(=O)O)cc1` (stereo not drawn) yielded a melting point of 75 to 76 °C.

In turn, `CSc1nn(C)c(=O)n1-c1ccccc1Oc1ccccc1` had a melting point of 129 to 130 °C.

As for `O=C(O)c1ccc(NC(=O)c2ccccc2-c2ccccc2)cc1`, the melting point lay within 246 to 249 °C. In turn, `COc1ccc(-c2c(Cl)c(CN3C(=O)CCC3=O)nc3sc4c(c23)CCN(Cc2ccccc2)C4)cc1` displayed a melting point of 241 to 243 °C. As for `Cc1ccn2c(C)c(CCc3ccc4nc(N)oc4c3)nc2c1`, the melting point fell in the range of 244 to 246 °C.

For the compound `CCc1cccc(C)c1CNc1cc(C(=O)O)cc2c1nc(C)n2C`, the melting point is 312 to 314 °C.

Compound `COP(=O)(NC1C(=O)N2C(C(=O)OCc3ccc([N+](=O)[O-])cc3)=C(C=CN(C)C)CSC12)OC` (stereo not drawn) showed a melting point of 236 to 237 °C. `COc1ccc(-c2nc(C(=O)N3CCN(C(C)=O)CC3)sc2-c2ccc(OC)cc2)cc1` came in with a melting point of 176 to 178 °C. Then `COc1ccc(C(=[N+]=[N-])c2ccc(OC)cc2)cc1`, with 85 °C; and `CCOC(=O)C(=O)c1ccc(OCCCCCCCCCCCCOc2ccccc2)cc1`, with 58 to 59 °C; and `O=C(O)CS(=O)(=O)c1ccc2c(-c3ccc(Cl)cc3)noc2c1`, with 201 to 203 °C. With `CC(=O)N1CCc2ccsc2C1=O` the figure was 92 °C; with `COc1ccc(-c2nc(Cl)cc(Cl)n2)cc1`, 127 to 128 °C. On to `CC(=O)N[C@H]1CC[C@H](CCN2CCN(c3ncc(C)c4c3CCO4)CC2)CC1`, for which the melting point was determined as 196 °C. Then `CCOc1nn(-c2c(Cl)cc(C(F)(F)F)cc2Cl)c(N)c1C(=O)c1cccc(C(F)(F)F)c1`, with 77 to 78 °C. For the compound `CN(C)C=Nc1ccc(-c2c[nH]cn2)cc1`, the melting point is 141 to 142 °C. Then `O=c1[nH]c2ccc(C(F)(F)F)cc2c2c1c(=O)oc1ccc(Cl)cc12`, with over 250 °C; and `COC(=O)C(Oc1ccc(OCc2ccccc2)cc1)c1ccc(Oc2ccc(Cl)cc2)cc1` (stereo not drawn), with 88 to 90 °C; and `COc1ccc(CSC2=NC(c3cccc(Cl)c3Cl)C(C(=O)OC(C)C)=C(C)N2)cc1` (stereo not drawn), with 98 to 100 °C. As to `COc1cc(C)c(OC)cc1C`, the melting point is 108 to 110 °C. `CC(=O)ON=C(N)c1cccc(C(=O)NCCCNC(=O)[C@@H]2CCCN2S(=O)(=O)c2ccc(Cl)c(COc3cccc4c(C)cc(C)nc34)c2Cl)c1` returned a melting point of 100 to 104 °C. In the case of `O=Cc1c[nH]c2c(F)cccc12`, the melting point lay within 203 to 205 °C. As to `CCC(CC)(CC(=O)Nc1cccc(/C=C/c2nc(C3CCC3)cs2)c1)C(=O)O`, the melting point fell in the range of 170 to 172 °C. With `CCOC(Cn1cncn1)(c1ccc(F)cc1F)C(F)(F)S(=O)(=O)CCO` (stereo not drawn) the figure was 150 to 153 °C. Then `COC(=O)c1cc(N)c(C(F)(F)F)cc1NC(C)=O`, with 143 to 152 °C; and `N#Cc1ncc(-c2ccccc2)nc1Cl`, with 143 to 145 °C; and `O=c1[nH]c(=S)n2c3c1cnn3C(c1ccccc1)=CC2`, with 289 to 291 °C.

`O=c1[nH]ncc2[nH]c(-c3ccc(OC(F)F)c(OC4CC4)c3)c(CO)c12`: the melting point fell in the range of 190 to 191 °C.

For the compound `O=C(O)COc1ccc(CC2SC(=O)NC2=O)cc1` (stereo not drawn), the melting point lay within 181 to 183 °C. Regarding `CCCCc1ccc(C(=O)NCCN(C(C)=O)[C@@H](CCC(N)=O)C(=O)O)nc1`, the melting point was 156 to 158 °C.

With `COc1ccnc(CSc2nc3cc4c(cc3[nH]2)OCO4)c1C`, the melting point was 215 to 220 °C. Take `COCCOc1ccc(/C=C/C(=O)O)c(NC(=O)c2ccc(Cl)cc2Cl)c1`: the melting point fell in the range of 243 to 245 °C. `Nc1nc(Nc2ccccc2)nc(-c2cc(Cl)ccc2Cl)n1` registered a melting point of 180 to 181 °C. Then `CCCCS(=O)Cc1cc(C)c(CCl)cc1C` (stereo not drawn), with 112 °C. On to `Clc1ccc2c(c1)C=C(Cn1ccnc1)c1ccsc1S2`, for which the melting point was 154 to 156 °C. As to `CC(C)Nc1nc2c(F)c(F)c(F)cc2n1[C@@H]1O[C@H](C)[C@@H](O)[C@H]1O`, the melting point was 148 to 151 °C. For `COc1cc(NC2=C(Cl)C(=O)c3ccccc3C2=O)ccc1S(=O)(=O)Nc1ccccc1C`, the melting point was in the range of 197 to 200 °C.

In turn, `O=C(O)CCc1cn(Cc2ccc(OCc3ccc(-c4ccccc4)cn3)cc2)nc1-c1ccc(F)cc1` gave a melting point of 162 to 163 °C. Regarding `COc1ccc(OC)c(C(=O)c2cc3ccc(OC)cc3o2)c1`, the melting point was 129 to 131 °C. `CCCSNc1ccc(N)cc1` showed a melting point of 213 to 225 °C.

Regarding `CC(C)(C)OC(=O)NNCCC12CC3CC(CC(C3)C1)C2`, the melting point was in the range of 73.5 to 81 °C.

As for `Clc1nnc(Cl)c2c1CCCC2`, the melting point lay within 148 to 150 °C. Take `CON=C(N)Nc1nc(C)nc(OC)n1`: the melting point came to 142 °C.
